Key:
Type in all cases: in vivo
[1] = tested on: hypocretin cell ablated narcoleptic mice (prepororexin/ataxin-3 transgenic) and their littermate wild-type mice; assay: Sleep parameters (EEG/EMG polygraph) in narcoleptic and wild-type mice after oral dosing; details: for duration of continuous wakefulness: resting period (ZT 2), most wild-type and narcoleptic mice
Description: The polygraph signal (EEG and EMG) was captured with SleepSign (Kissei Comtech), and the sleep stage was visually scored with 10 sec epoch for wakefulness, non-REM sleep and REM sleep. Scoring criteria are: Wakefulness is characterized by desynchronized low-amplitude, mixed frequency (>4 Hz) EEG and high EMG activity. Rhythmic alpha (8-9 Hz) wave (with high EMG activities) may also appear. Non-REM is characterized by synchronized, high-amplitude, low-frequency (0.25-4 Hz) with reduced EMG activity (compared to wakefulness). EEG activity in REM sleep is similar to that in wakefulness, with desynchronized, mixed frequency low amplitude waves. Rhythmic alpha (8-9 Hz) wave with reduced EMG activities may also appear. […] is reduced even further and in many cases, completely absent. Same muscle twitching may be apparent in the EMG trace during REM sleep.
Three drug doses of the test compound (50, 100 and 150 mg/kg PO) plus vehicle, were orally administered at ZT 2 (2 hours after light on) or ZT14 (2 hours after light off), and the effects on sleep were monitored for 6 hours after the drug administration (the sleep data was collected for 30 hours after the drug injection, and are available for further analysis). The doses for modafinil were 50 and 200 mg/kg PO (plus vehicle), and modafinil was also administered at ZT 2 and […]
If the polygraph signals of some mice were not sufficient to score the sleep stage with accuracy (especially bad EMG), data from these animals were excluded, and the minimum of 5 animals (except for the highest dose of the test compound in wild-type mice in dark period, n=4) were included for the data analysis and number of animals were indicated in the figures.
Effects of test compound and modafinil on the amount of wake, non-REM sleep, REM sleep (cumulative seconds), number of episodes for each sleep stage during 6 hours, and mean wake/sleep-bout lengths (seconds) were analyzed in each animal and the mean of each parameter was calculated in each genotype. The effects of compounds on wake and sleep amounts are useful to evaluate the wake promoting potency, and the number of episodes for each sloop stage and the mean wake/sleep bout length are parameters for evaluating the sleep fragmentation. Amphetamine and modafinil, two main wake-promoting compounds currently used for the treatment of EDS associated with various etiologies (narcolepsy, idiopathic hypersomnia and secondary EDS), are known to increase wake time and prolong wake bout length in normal and EDS conditions.
A comparison of the effects between hypocretin deficient and wild-type mice is very useful in determining the wake-promotion of the test compound is dependent on the availability of hypocretins, and if there is a possible change in the sensitivity of the receptive mechanisms of test compound in narcoleptic mice due to the hypocretin ligand deficiency.

[2] = tested on: C57BL/6J, AKR/J and DBA/2J mice; assay: Sleep onset and vigilance states in three inbred mouse strains after IP injection
Description: At least 7 adult male mice of inbred strains C57BL/6J, AKR/J, and DBA/2J were recorded in 2 sessions of 72 continuous hours. The first 24 h in each session are considered as baseline followed the next day by the saline injection and the next day by 150 mg/kg of the test compound in the first session and 5 mg/kg d-amphetamine in the second session. The two sessions were separated by 7 days (wash-out period) and all injections were intraperitoneal (IP) and performed at light onset (9 am) in a volume of 5 ml/kg.

[3] = tested on: adult human subjects with moderate or severe major depression without psychotic features; assay: Randomized double-blind placebo- and active-controlled 6-week study in major depression; details: for ABCD questionnaire items (of 51) with statistically significant superiority to placebo: post hoc analyses
Description: This was a randomized, double-blind, parallel-group, active, and placebo-controlled, multicenter study conducted in the U.S. (23 centers) and Canada (4 centers). There were 2 phases: a pretreatment phase (screening/washout and a baseline visit) and a 6-week, double-blind treatment phase. Paroxetine, a positive control, was included to evaluate assay sensitivity. After washout (if needed) of prohibited substances, subjects were randomly assigned (1:1:1:1) to receive the test compound titrated to a target dose of 200 mg/day or 400 mg/day, matching placebo, or a fixed dose (20 mg/day) of paroxetine. Study drug was given twice daily for 6 weeks. Efficacy and safety were assessed weekly during the double-blind phase. Subjects completing the study underwent an Exit Interview (“Your Health and Well-Being”) and completed an Assessment of Benefits of Clinical-trial Drug-treatment (ABCD) questionnaire (U.S. sites only).

[4] = tested on: male adult Sprague Dawley rats; assay: Sleep-wake organization (EEG/EOG/EMG) in rats after acute i.p. administration; details: for Duration Active wake / Duration Deep sleep / Duration Intemediate stage / Duration Light sleep / Duration Passive wake / Duration REM sleep / Latency ISWS / Latency REM sleep / Latency dSWS / Shifts: Shift from ISWS to AW / Shifts: Shift from ISWS to PW / Shifts: Shift from REMS to AW / Shifts: Shift from REMS to PW / Shifts: Shift from dSWS to AW / Shifts: Shift from dSWS to PW: rats, mean ± s.e.m of 8 rats; for Duration Active wake / Duration Deep sleep / Duration Intemediate stage / Duration Light sleep / Duration Passive wake / Duration REM sleep: 16 h recording
[5] = 3 mg/kg i.p., 16 hours recording
[6] = 30 mg/kg i.p., 16-h post-injection

NC(=O)OC[C@H](N)Cc1ccccc1 [test compound, (R)-(beta-amino-benzenepropyl) carbamate]
duration of continuous wakefulness ([1]; 50 mg/kg PO): up to 3 hours
duration of continuous wakefulness ([1]; 100 mg/kg PO): ≤ 4 h
duration of continuous wakefulness ([1]; 150 mg/kg PO): ≤ 5 h
bouts of wakefulness ([1]; 50-150 mg/kg PO, wild-type and narcoleptic mice): significantly increased bouts of wakefulness
effect on wakefulness ([1]; active (dark) period, ZT14, PO): dose-dependently increased wakefulness
wake amounts in narcoleptic mice relative to wild-type mice ([1]; active period, 100 and 150 mg/kg PO): brought up to the levels of wild-type mice
amounts of non-REM and REM sleep in narcoleptic mice relative to wild-type mice ([1]; active period, PO): brought down to the levels of wild-type mice
Non-REM and REM sleep during the period of continuous wakefulness ([1]; resting period, 50, 100, 150 mg/kg PO): completely suppressed
EEG patterns after administration ([1]; resting period, 50-150 mg/kg PO): no abnormal EEG patterns
effect on REM sleep ([1]; resting period, PO): potently reduced REM sleep
wake-promoting effects ([1]; resting period, wild-type and hypocretin-deficient narcoleptic mice, PO): Very potent wake-promoting effects
genotype effect on wake time referenced to sleep latency after saline ([2]; 150 mg/kg IP): no genotype effect
duration of induced continuous wakefulness (sleep latency) ([2]; 150 mg/kg IP at light onset, three inbred strains): up to 4.5 hours
wakefulness duration compared with d-amphetamine 5 mg/kg ([2]; 150 mg/kg IP, hourly wakefulness over 72 h recordings): significantly longer wakefulness duration than amphetamine
ABCD questionnaire items (of 51) with statistically significant superiority to placebo ([3]; 200 mg): 14 items
ABCD questionnaire items (of 51) with statistically significant superiority to placebo ([3]; 400 mg): 8 items
secondary efficacy variables of mood and well-being ([3]; one or both doses (200 and 400 mg/day), 6 weeks): statistically significantly greater efficacy than placebo
Insomnia, treatment-emergent adverse event incidence ([3]; target dose 200 mg/day, 6 weeks): 24%
Insomnia, treatment-emergent adverse event incidence ([3]; target dose 400 mg/day, 6 weeks): 35%
increase in total light sleep vs vehicle [4, 5]: +26%
increased drive to wakefulness from deep sleep vs vehicle [4, 5]: +15%
increased drive to wakefulness from light sleep vs vehicle [4, 5]: +46%
increase in shifts from REM sleep towards active wakefulness vs vehicle ([4]; 10 mg/kg i.p.): +16%
increase in total duration of light sleep vs vehicle ([4]; 10 mg/kg i.p.): +24%
change in number of epochs of REM sleep ([4]; 30 mg/kg i.p.): −24%
change in number of epochs of active wakefulness ([4]; 30 mg/kg i.p.): +19%
change in number of epochs of light sleep ([4]; 30 mg/kg i.p.): −23%
change in number of epochs of passive wakefulness ([4]; 30 mg/kg i.p.): −30%
mean durations of sleep wake states ([4]; 30 mg/kg i.p.): not modified
onset of activity after administration ([4]; 30 mg/kg i.p.): ~30 min
change of total time spent in REM sleep vs vehicle [4, 6]: −25%
change of total time spent in active wakefulness vs vehicle [4, 6]: +19%
change of total time spent in light sleep vs vehicle [4, 6]: −20%
change of total time spent in passive wakefulness vs vehicle [4, 6]: −29%
overall profile of effects ([4]; 30 mg/kg i.p., beginning of the administration): psychostimulant-like properties
duration of rebound increase in deep sleep ([4]; 30 mg/kg i.p., starting 3 hours after administration): about 7 hours
duration of central activity after injection ([4]; i.p.): at least 4 hours
time of peak in effect post administration ([4]; i.p.): around 2 hours
Duration Active wake ([4]; 3 mg/kg i.p.): 290.0 ± 11.2 min
Duration Deep sleep ([4]; 3 mg/kg i.p.): 125.0 ± 24.6 min
Duration Intemediate stage ([4]; 3 mg/kg i.p.): 2.9 ± 0.7 min
Duration Light sleep ([4]; 3 mg/kg i.p.): 374.7 ± 16.6 min
Duration Passive wake ([4]; 3 mg/kg i.p.): 79.5 ± 10.7 min
Duration REM sleep ([4]; 3 mg/kg i.p.): 84.0 ± 5.4 min
Latency ISWS ([4]; 3 mg/kg i.p.): 15.6 ± 4.1 min
Latency REM sleep ([4]; 3 mg/kg i.p.): 66.0 ± 11.8 min
Latency dSWS ([4]; 3 mg/kg i.p.): 42.0 ± 8.5 min
Shifts: Shift from ISWS to AW ([4]; 3 mg/kg i.p.): 217.8 ± 55.5 number
Shifts: Shift from ISWS to PW ([4]; 3 mg/kg i.p.): 78.1 ± 35.8 number
Shifts: Shift from REMS to AW ([4]; 3 mg/kg i.p.): 78.0 ± 21.6 number
Shifts: Shift from REMS to PW ([4]; 3 mg/kg i.p.): 3.7 ± 3.0 number
Shifts: Shift from dSWS to AW ([4]; 3 mg/kg i.p.): 9.7 ± 6.6 number
Shifts: Shift from dSWS to PW ([4]; 3 mg/kg i.p.): 6.6 ± 5.9 number
Duration Active wake ([4]; 10 mg/kg i.p.): 305.5 ± 15.1 min
Duration Deep sleep ([4]; 10 mg/kg i.p.): 104.0 ± 19.3 min
Duration Intemediate stage ([4]; 10 mg/kg i.p.): 5.2 ± 0.7 min
Duration Light sleep ([4]; 10 mg/kg i.p.): 366.6 ± 21.2 min
Duration Passive wake ([4]; 10 mg/kg i.p.): 73.1 ± 13.2 min
Duration REM sleep ([4]; 10 mg/kg i.p.): 102.3 ± 4.6 min
Latency ISWS ([4]; 10 mg/kg i.p.): 30.4 ± 7.9 min
Latency REM sleep ([4]; 10 mg/kg i.p.): 87.5 ± 14.5 min
Latency dSWS ([4]; 10 mg/kg i.p.): 127.2 ± 67.1 min
Shifts: Shift from ISWS to AW ([4]; 10 mg/kg i.p.): 204.5 ± 56.4 number
Shifts: Shift from ISWS to PW ([4]; 10 mg/kg i.p.): 84.4 ± 40.5 number
Shifts: Shift from REMS to AW ([4]; 10 mg/kg i.p.): 94.1 ± 24.0 number
Shifts: Shift from REMS to PW ([4]; 10 mg/kg i.p.): 8.9 ± 6.7 number
Shifts: Shift from dSWS to AW ([4]; 10 mg/kg i.p.): 4.2 ± 3.1 number
Shifts: Shift from dSWS to PW ([4]; 10 mg/kg i.p.): 12.5 ± 8.5 number
Duration Active wake ([4]; 30 mg/kg i.p.): 371.6 ± 7.7 min
Duration Deep sleep ([4]; 30 mg/kg i.p.): 214.9 ± 15.6 min
Duration Intemediate stage ([4]; 30 mg/kg i.p.): 4.0 ± 1.0 min
Duration Light sleep ([4]; 30 mg/kg i.p.): 235.8 ± 14.3 min
Duration Passive wake ([4]; 30 mg/kg i.p.): 57.3 ± 4.7 min
Duration REM sleep ([4]; 30 mg/kg i.p.): 72.9 ± 7.3 min
Latency ISWS ([4]; 30 mg/kg i.p.): 73.6 ± 25.7 min
Latency REM sleep ([4]; 30 mg/kg i.p.): 251.8 ± 32.0 min
Latency dSWS ([4]; 30 mg/kg i.p.): 174.6 ± 12.3 min
Shifts: Shift from ISWS to AW ([4]; 30 mg/kg i.p.): 221.9 ± 58.3 number
Shifts: Shift from ISWS to PW ([4]; 30 mg/kg i.p.): 74.2 ± 29.0 number
Shifts: Shift from REMS to AW ([4]; 30 mg/kg i.p.): 65.1 ± 21.8 number
Shifts: Shift from REMS to PW ([4]; 30 mg/kg i.p.): 4.1 ± 3.2 number
Shifts: Shift from dSWS to AW ([4]; 30 mg/kg i.p.): 8.7 ± 5.3 number
Shifts: Shift from dSWS to PW ([4]; 30 mg/kg i.p.): 17.6 ± 12.0 number

From US9999609B2, “Methods for treating or preventing fatigue” (SK Biopharmaceuticals Co., Ltd., priority 2009, dated 2018)
